{"source": "patent US8318455B2", "about": "“Inducible/regulated gene expression system in E coli” (priority 2007, dated 2012)", "key": {"[1]": {"system": "GFP expression in host cells", "test": "Plate assay: GFP expression, T7 system vs cumate system", "assay_type": "cell-based, Escherichia coli", "settings": "plates with IPTG (1 mM) or cumate (0.12 mM); FIG. 4", "description": "Host cell transformation and gene expression. pNEW vectors harbouring different genes of interest were transformed into various E. coli cells by chemical or electroporation methods (Sambrook and Russell, 2000). The transformed cells were grown at 37° C. in LB medium, and expression of genes under developed system was induced with 20 μg/ml cumate or as indicated.\n(§1) Detection of gene expression. Detection of GFP was carried out by fluorescence microscopy, and quantified by using a SPECTRAFluor Plus (TECAN Austria Gmbh, Grodïg, Austria) under excitation and emission wavelengths of 485 and 508 nm, respectively. Concentration of GFP was calculated based on a linear relationship between concentration and fluorescence units determined using solutions of purified GFP (Qbiogene). The biomass (X) was determined by cell dry weight measurement of the samples (Moisture Analyzer MA 30, Sartorius).\nFIG. 4 depicts a comparison between T7 system and cumate system for GFP expression in plates containing IPTG (1 mM) and cumate (0.12 mM) as inducer, respectively."}, "[2]": {"system": "GFP expression in E. coli BL21(DE3)pLysS", "assay_type": "cell-based, Escherichia coli", "settings": "for GFP yield / course of induced GFP expression (time of maximum): 100 μm inducer; for state of the induced culture (lysis, foaming): fermenter culture, after 8 hours post induction; for specific yield of GFP / total yield of GFP: defined medium A; for course of induced GFP expression (time of maximum): post induction, FIG. 10A", "description": "Benchtop Fermentations. Batch fermentation experiments were carried out in a 14-I bioreactor (BioFlo 110, New Brunswick Scientific, Edison, N.J. USA) to compare GFP production yield between T7 expression system and cumate system. For the batch culture, pre-cultures were used to inoculate the bioreactor filled with 5 l of medium A (Yoon et al, 2003) and initial O.D. was adjusted to 0.1 for both expression systems. The cultures induced with IPTG for T7 system and cumate for cumate system when O.D. reached at 38 to 42. For cultures carried out in bioreactors, pH and dissolved oxygen were controlled at 7 and 25%, respectively.\nas §1\nAll results obtained were in defined medium A. The value ‘x’ is dry weight in g/L.\nAll results obtained were in defined medium A."}, "[3]": {"settings": "45 minutes post induction, FIG. 9C"}, "[4]": {"settings": "2 hours post induction, FIG. 9E"}, "[5]": {"settings": "3 hours post induction, FIG. 9F"}, "[6]": {"settings": "inducer 100 μM, induction time 1 h"}, "[7]": {"settings": "inducer 100 μM, induction time 2 h"}, "[8]": {"settings": "inducer 100 μM, induction time 4 h"}, "[9]": {"settings": "inducer 100 μM, induction time 5 h"}, "[10]": {"settings": "inducer 100 μM, induction time 6 h"}, "[11]": {"settings": "inducer 100 μM, induction time 7 h"}, "[12]": {"settings": "inducer 100 μM, induction time 8 h"}, "[13]": {"settings": "inducer 100 μM, induction time 9 h"}, "[14]": {"settings": "inducer 1000 μM, induction time 1 h"}, "[15]": {"settings": "inducer 1000 μM, induction time 2 h"}, "[16]": {"settings": "inducer 1000 μM, induction time 4 h"}, "[17]": {"settings": "inducer 1000 μM, induction time 5 h"}, "[18]": {"settings": "inducer 1000 μM, induction time 6 h"}, "[19]": {"settings": "inducer 1000 μM, induction time 7 h"}, "[20]": {"settings": "inducer 1000 μM, induction time 8 h"}, "[21]": {"settings": "inducer 1000 μM, induction time 9 h"}}, "note": "Like-named read-outs stand apart in the source and are kept apart here."}
{"smiles": "CC(C)c1ccc(C(=O)O)cc1", "note": "[Cumate, p-cumate]", "values": [{"measurement": "GFP expression on plates, comparison of systems", "setting": "[1]", "result": "dramatically outperforms the IPTG system"}, {"measurement": "GFP yield", "setting": "[2]; [3]", "result": 30, "unit": "mg/g"}, {"measurement": "GFP yield", "setting": "[2]; 1 hour post induction, FIG. 9D", "result": 38, "unit": "mg/g"}, {"measurement": "GFP yield", "setting": "[2]; [4]", "result": 84, "unit": "mg/g"}, {"measurement": "GFP yield", "setting": "[2]; [5]", "result": 123, "unit": "mg/g"}, {"measurement": "cumate induced GFP yield relative to IPTG induced culture", "setting": "[2]; cultures induced with 1000 μM IPTG or cumate", "result": "more than double"}, {"measurement": "state of the induced culture (lysis, foaming)", "setting": "[2]", "result": "no lysis occurred"}, {"measurement": "specific yield of GFP", "setting": "[2]; [6]", "result": 38, "unit": "mg/g x"}, {"measurement": "total yield of GFP", "setting": "[2]; [6]", "result": 602, "unit": "mg/L"}, {"measurement": "specific yield of GFP", "setting": "[2]; [7]", "result": 84, "unit": "mg/g x"}, {"measurement": "total yield of GFP", "setting": "[2]; [7]", "result": 644, "unit": "mg/L"}, {"measurement": "specific yield of GFP", "setting": "[2]; [8]", "result": 123, "unit": "mg/g x"}, {"measurement": "total yield of GFP", "setting": "[2]; [8]", "result": 3002, "unit": "mg/L"}, {"measurement": "specific yield of GFP", "setting": "[2]; [9]", "result": 164, "unit": "mg/g x"}, {"measurement": "total yield of GFP", "setting": "[2]; [9]", "result": 4719, "unit": "mg/L"}, {"measurement": "specific yield of GFP", "setting": "[2]; [10]", "result": 176, "unit": "mg/g x"}, {"measurement": "total yield of GFP", "setting": "[2]; [10]", "result": 5443, "unit": "mg/L"}, {"measurement": "specific yield of GFP", "setting": "[2]; [11]", "result": 165, "unit": "mg/g x"}, {"measurement": "total yield of GFP", "setting": "[2]; [11]", "result": 6194, "unit": "mg/L"}, {"measurement": "specific yield of GFP", "setting": "[2]; [12]", "result": 193, "unit": "mg/g x"}, {"measurement": "total yield of GFP", "setting": "[2]; [12]", "result": 6977, "unit": "mg/L"}, {"measurement": "specific yield of GFP", "setting": "[2]; [13]", "result": 222, "unit": "mg/g x"}, {"measurement": "total yield of GFP", "setting": "[2]; [13]", "result": 7838, "unit": "mg/L"}, {"measurement": "specific yield of GFP", "setting": "[2]; [14]", "result": 36, "unit": "mg/g x"}, {"measurement": "total yield of GFP", "setting": "[2]; [14]", "result": 486, "unit": "mg/L"}, {"measurement": "specific yield of GFP", "setting": "[2]; [15]", "result": 71, "unit": "mg/g x"}, {"measurement": "total yield of GFP", "setting": "[2]; [15]", "result": 1459, "unit": "mg/L"}, {"measurement": "specific yield of GFP", "setting": "[2]; [16]", "result": 110, "unit": "mg/g x"}, {"measurement": "total yield of GFP", "setting": "[2]; [16]", "result": 2851, "unit": "mg/L"}, {"measurement": "specific yield of GFP", "setting": "[2]; [17]", "result": 141, "unit": "mg/g x"}, {"measurement": "total yield of GFP", "setting": "[2]; [17]", "result": 4593, "unit": "mg/L"}, {"measurement": "specific yield of GFP", "setting": "[2]; [18]", "result": 149, "unit": "mg/g x"}, {"measurement": "total yield of GFP", "setting": "[2]; [18]", "result": 4885, "unit": "mg/L"}, {"measurement": "specific yield of GFP", "setting": "[2]; [19]", "result": 155, "unit": "mg/g x"}, {"measurement": "total yield of GFP", "setting": "[2]; [19]", "result": 5989, "unit": "mg/L"}, {"measurement": "specific yield of GFP", "setting": "[2]; [20]", "result": 249, "unit": "mg/g x"}, {"measurement": "total yield of GFP", "setting": "[2]; [20]", "result": 9666, "unit": "mg/L"}, {"measurement": "specific yield of GFP", "setting": "[2]; [21]", "result": 289, "unit": "mg/g x"}, {"measurement": "total yield of GFP", "setting": "[2]; [21]", "result": 11150, "unit": "mg/L"}, {"measurement": "course of induced GFP expression (time of maximum)", "setting": "[2]", "result": "> 8", "unit": "h"}]}
{"smiles": "CC(C)S[C@@H]1O[C@H](CO)[C@H](O)[C@H](O)[C@H]1O", "note": "[IPTG, isopropyl-beta-D-thiogalactopyranoside]", "values": [{"measurement": "GFP yield", "setting": "[2]; [3]", "result": 27, "unit": "mg/g"}, {"measurement": "GFP yield", "setting": "[2]; 1 hour post induction, FIG. 9D", "result": 37, "unit": "mg/g"}, {"measurement": "GFP yield", "setting": "[2]; [4]", "result": 74, "unit": "mg/g"}, {"measurement": "GFP yield", "setting": "[2]; [5]", "result": 90, "unit": "mg/g"}, {"measurement": "state of the induced culture (lysis, foaming)", "setting": "[2]", "result": "quickly began to lyse"}, {"measurement": "specific yield of GFP", "setting": "[2]; [6]", "result": 37, "unit": "mg/g x"}, {"measurement": "total yield of GFP", "setting": "[2]; [6]", "result": 554, "unit": "mg/L"}, {"measurement": "specific yield of GFP", "setting": "[2]; [7]", "result": 74, "unit": "mg/g x"}, {"measurement": "total yield of GFP", "setting": "[2]; [7]", "result": 1300, "unit": "mg/L"}, {"measurement": "specific yield of GFP", "setting": "[2]; [8]", "result": 90, "unit": "mg/g x"}, {"measurement": "total yield of GFP", "setting": "[2]; [8]", "result": 1778, "unit": "mg/L"}, {"measurement": "specific yield of GFP", "setting": "[2]; [9]", "result": 96, "unit": "mg/g x"}, {"measurement": "total yield of GFP", "setting": "[2]; [9]", "result": 2486, "unit": "mg/L"}, {"measurement": "specific yield of GFP", "setting": "[2]; [10]", "result": 85, "unit": "mg/g x"}, {"measurement": "total yield of GFP", "setting": "[2]; [10]", "result": 2035, "unit": "mg/L"}, {"measurement": "specific yield of GFP", "setting": "[2]; [11]", "result": 58, "unit": "mg/g x"}, {"measurement": "total yield of GFP", "setting": "[2]; [11]", "result": 1567, "unit": "mg/L"}, {"measurement": "specific yield of GFP", "setting": "[2]; [12]", "result": 68, "unit": "mg/g x"}, {"measurement": "total yield of GFP", "setting": "[2]; [12]", "result": 1948, "unit": "mg/L"}, {"measurement": "specific yield of GFP", "setting": "[2]; [13]", "result": 67, "unit": "mg/g x"}, {"measurement": "total yield of GFP", "setting": "[2]; [13]", "result": 2090, "unit": "mg/L"}, {"measurement": "specific yield of GFP", "setting": "[2]; [14]", "result": 37, "unit": "mg/g x"}, {"measurement": "total yield of GFP", "setting": "[2]; [14]", "result": 606, "unit": "mg/L"}, {"measurement": "specific yield of GFP", "setting": "[2]; [15]", "result": 60, "unit": "mg/g x"}, {"measurement": "total yield of GFP", "setting": "[2]; [15]", "result": 1191, "unit": "mg/L"}, {"measurement": "specific yield of GFP", "setting": "[2]; [16]", "result": 83, "unit": "mg/g x"}, {"measurement": "total yield of GFP", "setting": "[2]; [16]", "result": 1966, "unit": "mg/L"}, {"measurement": "specific yield of GFP", "setting": "[2]; [17]", "result": 103, "unit": "mg/g x"}, {"measurement": "total yield of GFP", "setting": "[2]; [17]", "result": 2464, "unit": "mg/L"}, {"measurement": "specific yield of GFP", "setting": "[2]; [18]", "result": 118, "unit": "mg/g x"}, {"measurement": "total yield of GFP", "setting": "[2]; [18]", "result": 3340, "unit": "mg/L"}, {"measurement": "specific yield of GFP", "setting": "[2]; [19]", "result": 135, "unit": "mg/g x"}, {"measurement": "total yield of GFP", "setting": "[2]; [19]", "result": 4238, "unit": "mg/L"}, {"measurement": "specific yield of GFP", "setting": "[2]; [20]", "result": 145, "unit": "mg/g x"}, {"measurement": "total yield of GFP", "setting": "[2]; [20]", "result": 4079, "unit": "mg/L"}, {"measurement": "course of induced GFP expression (time of maximum)", "setting": "[2]", "result": 4, "unit": "h"}]}
